Experimental data: patent EP2168591A1, “Antimicrobial peptides” (Helmholtz Zentrum München Deutsches Forschungszentrum für …, priority 2008, dated 2010)
Like-named read-outs stand apart in the source and are kept apart here. Non-standard residues stand in square brackets, D forms with d. Residues, ends and D or L forms follow the SMILES beside them. No end group written: not given here.

Legend:
[1] = tested on: Pectobacterium carotovorum sub. carotovorum
Method: (§1) In-vitro inhibition assays were performed in sterile flat-bottom 96-well plates (Greiner bio-one, Frickenhausen). Antimicrobial peptides were dissolved in 0.01% acetic acid containing 0.2% BSA (500 µg/ml), filter sterilized and stored at -20°C. For inhibition assays dilutions of peptides ranging from 5 to 200 µg/ml were prepared and 10 µl (antibacterial assay) or 20 µl (antifungal assay) of each concentration was loaded per well.
(§2) Bacteria colonies from overnight agar plate cultures were resuspended into 5ml LB-medium or HPG-medium (OD600nm=0.08-0.1) and diluted into LB-medium/HPG-medium (1:100). 90 µl of this suspension containing about 10^5-10^6 CFU/ml of tested bacteria were added to each well resulting in final peptide concentrations of 0, 0.5, 1, 2, 5, 10, and 20 µg/ml.
(§3) The lowest peptide concentration leading to complete inhibition of bacterial growth or spore germination/mycelial growth (minimal inhibition concentration, MIC) was determined for each organism-peptide combination. For each peptide concentration two identical inhibition assays were performed. […] Table 1: Minimal inhibition concentration (MIC) for complete inhibition of bacterial growth or spore germination/mycelial growth.

[2] = tested on: Pseudomonas corrugata
Method: as §1, §2, §3

[3] = tested on: Pseudomonas syringae pv. syringae
Method: as §1, §2, §3

[4] = tested on: Pseudomonas syringae pv. tomato
Method: as §1, §2, §3

[5] = tested on: Xanthomonas vesicatoria
Method: as §1, §2, §3

[6] = tested on: Alternaria alternata; type: cell-based; details: complete inhibition of spore germination/mycelial growth, OD590nm
Method: (§4) In-vitro inhibition assays were performed in sterile flat-bottom 96-well plates (Greiner bio-one, Frickenhausen). […] Spores of fungi were collected by water washes of sporulating cultures grown on 2% malt extract agar and spore concentration was determined by microscopy. The concentration of the spores was adjusted to 1.5-2 x 10^3 spores/ml in 2% malt extract medium and 80 µl of fungal spores were added per well. […] After overnight incubation at room temperature the plate were put on a rotary shaker (300 rpm) for further two days to ensure consistantly growth. Antifungal effects of the peptides were determined by a microplate reader (Alternaria, Fusarium) at OD590nm or by visual screening of the plates (Botrytis, Cladosporium). The lowest peptide concentration leading to complete inhibition of bacterial growth or spore germination/mycelial growth (minimal inhibition concentration, MIC) was determined for each organism-peptide combination. For each peptide concentration two identical inhibition assays were performed. Table 1: Minimal inhibition concentration (MIC) for complete inhibition of bacterial growth or spore germination/mycelial growth.

[7] = tested on: Botrytis cinerea; type: cell-based; details: complete inhibition of spore germination/mycelial growth, visual screening
Method: as §4

[8] = tested on: Cladosporium herbarum; type: cell-based; details: complete inhibition of spore germination/mycelial growth, visual screening
Method: as §4

[9] = tested on: Clavibacter michiganensis sub. michiganensis; details: complete inhibition of bacterial growth, overnight at 25 °C
Method: as §1, §2, §3

[10] = complete inhibition of bacterial growth, Pectobacterium carotovorum sub. carotovorum, overnight at 25 °C
[11] = complete inhibition of bacterial growth, Pseudomonas corrugata, overnight at 25 °C
[12] = complete inhibition of bacterial growth, Pseudomonas syringae pv. syringae, overnight at 25 °C
[13] = complete inhibition of bacterial growth, Pseudomonas syringae pv. tomato, overnight at 25 °C
[14] = complete inhibition of bacterial growth, Xanthomonas vesicatoria, overnight at 25 °C

For `CC[C@@H](C)[C@@H](NC(=O)[C@H](Cc1ccccc1)NC(=O)[C@H](CCCNC(=N)N)NC(=O)[C@H](CCCCN)NC(=O)[C@H](CC(C)C)NC(=O)[C@H](Cc1ccccc1)NC(=O)[C@H](CCCCN)NC(=O)[C@H](NC(=O)[C@H](CC(C)C)NC(=O)[C@@H](N)CC(C)C)[C@H](C)CC)C(=O)N[C@@H](CCCCN)C(=O)N[C@@H](Cc1c[nH]cn1)C(N)=O` [SP7-D, LL/KFLKRF/KH] (H-LL[dI]KFLKRF[dI]KH-NH2; N-terminus assumed), the “Minimal inhibition concentration (MIC)” value [1] was 40 µg/mL, the “Minimal inhibition concentration (MIC)” value [2] was 5 µg/mL and the “Minimal inhibition concentration (MIC)” value [3] was 2,5 µg/ml. The “Minimal inhibition concentration (MIC)” value [4] was 2,5 µg/ml and the “Minimal inhibition concentration (MIC)” value [5] was 10 µg/mL.

For ALAHFLKKAIKK-NH2 [SP6], the “Minimal inhibition concentration (MIC)” value [6] was > 100 µg/mL, the “Minimal inhibition concentration (MIC)” value [7] was > 100 µg/mL and the “Minimal inhibition concentration (MIC)” value [8] was 100 µg/mL. For the same compound, the “Minimal inhibition concentration (MIC)” value [9] was > 40 µg/mL, the “Minimal inhibition concentration (MIC)” value [1, 10] was > 40 µg/mL and the “Minimal inhibition concentration (MIC)” value [2, 11] was 20 µg/mL. For the same compound, the “Minimal inhibition concentration (MIC)” value [3, 12] was 5 µg/mL, the “Minimal inhibition concentration (MIC)” value [4, 13] was 10 µg/mL and the “Minimal inhibition concentration (MIC)” value [5, 14] was 40 µg/mL.

In the case of LLIAAFKKLVKK-NH2 [SP5], the “Minimal inhibition concentration (MIC)” value [6] is reported as > 100 µg/mL, the “Minimal inhibition concentration (MIC)” value [7] is reported as > 100 µg/mL and the “Minimal inhibition concentration (MIC)” value [8] is reported as 100 µg/mL. The “Minimal inhibition concentration (MIC)” value [9] was 20 µg/mL, the “Minimal inhibition concentration (MIC)” value [1, 10] was > 40 µg/mL and the “Minimal inhibition concentration (MIC)” value [2, 11] was > 40 µg/mL. For the same compound, the “Minimal inhibition concentration (MIC)” value [3, 12] was 40 µg/mL, the “Minimal inhibition concentration (MIC)” value [4, 13] was > 40 µg/mL and the “Minimal inhibition concentration (MIC)” value [5, 14] was 40 µg/mL.

In the case of LLIKFLKRFIKH-NH2 [SP7], the “Minimal inhibition concentration (MIC)” value [6] is reported as > 100 µg/mL, the “Minimal inhibition concentration (MIC)” value [7] is reported as > 100 µg/mL and the “Minimal inhibition concentration (MIC)” value [8] is reported as 20 µg/mL. For the same compound, the “Minimal inhibition concentration (MIC)” value [9] was 5 µg/mL, the “Minimal inhibition concentration (MIC)” value [1, 10] was > 40 µg/mL and the “Minimal inhibition concentration (MIC)” value [2, 11] was 10 µg/mL. The “Minimal inhibition concentration (MIC)” value [3, 12] was 10 µg/mL, the “Minimal inhibition concentration (MIC)” value [4, 13] was 5 µg/mL and the “Minimal inhibition concentration (MIC)” value [5, 14] was 5 µg/mL.

With LLIRAAKKFIKK-NH2 [SP8] the “Minimal inhibition concentration (MIC)” value [6] was > 100 µg/mL, the “Minimal inhibition concentration (MIC)” value [7] was > 100 µg/mL and the “Minimal inhibition concentration (MIC)” value [8] was 40 µg/mL. The “Minimal inhibition concentration (MIC)” value [9] was > 40 µg/mL, the “Minimal inhibition concentration (MIC)” value [1, 10] was > 40 µg/mL and the “Minimal inhibition concentration (MIC)” value [2, 11] was > 40 µg/mL. The “Minimal inhibition concentration (MIC)” value [3, 12] was > 40 µg/mL, the “Minimal inhibition concentration (MIC)” value [4, 13] was > 40 µg/mL and the “Minimal inhibition concentration (MIC)” value [5, 14] was > 40 µg/mL.
